# Assay results reported in PMC6015065, “Linear Cyclodextrin Polymer Prodrugs as Novel Therapeutics for Niemann-Pick Type C1 Disorder” (Scientific Reports, 2018).
# Read-outs that look alike come from different tables or passages of the source.
# Tests used:
# [1] = cited from earlier work
# [2] = Pharmacokinetics after single intravenous dose (100 mg/kg); assay type: in vivo, BALB/c mice; conditions: BALB/c, mouse
# Method: (§1) LC/MS/MS (HPβCD) and HPLC-UV (ORX-301) were used for analysis in the studies. The bioanalytical method for HPβCD was linear, accurate, and precise in the concentration range of 5.4 and 500 µg/ml, with an LLOQ = 5.4 µg/ml, and met all the acceptance criteria.
# (§2) Pharmacokinetic analysis and MTD studies were carried out in BALB/c mice purchased from Taconic Biosciences. Protocols and procedures of these studies were approved by the Institutional Animal Ethics Committee based on CPCSEA (India) guidelines.
# (§3) Plasma was harvested and stored at −80 °C.
# Npc1^nmf164 mice [3] = tested on: Npc1^nmf164 mice; design: method as in PMID 26888431; conditions: HPβCD full dose 4000 mg/kg; cited from earlier work
# [4] = Pharmacokinetics after single subcutaneous dose (500 mg/kg); assay type: in vivo, BALB/c mice; conditions: BALB/c, mouse, plasma
# Method: as §1, §2, §3
# Npc1^nih/nih mice = conditions: cited from earlier work
# [5] = tested on: Calbindin in Purkinje cells of Npc1^nmf164 mice; experiment: Calbindin detection by immunofluorescence on cerebellar sections; assay type: in vivo; conditions: 10 weeks-old Npc1^nmf164 mice, 800 mg/kg SC weekly from 2 weeks
# Method: Sham-treated control mice were injected with plain PBS.
# Brains were quickly dissected, fixed overnight at 4 °C in 4% PFA and processed as previously described[52]. Briefly, fixed brains were dehydrated by incubation in 15–30% sucrose in PBS, embedded in FSC 22 Clear Frozen Section Compound (Leica Biosystems, Milano, Italy) and serially sectioned (slice thickness 10 µm) using a cryostat (Leica CM 1900). Sagittal sections were mounted on X-tra Adhesive glass slides (Leica biosystems). Sections were processed for immunofluorescence using a mouse monoclonal Calbindin antibody (Anti-Calbindin D28K, Sigma, Milan, Italy; 1:500 dilution in PBS) as routinely performed in our lab. A permeabilization step performed by incubating sections in 0.1% Triton X-100 in PBS for 10 min was followed by a 3 h incubation in a blocking solution containing 5% goat serum, 1% BSA, 0.2% Triton X-100 in PBS. Sections were then incubated over night with a 1:500 primary antibody dilution in PBS and, after several washes with PBS, with a TRITC-conjugated anti-mouse secondary antibody (Zymed-Thermo Fisher Scientific, Milan, Italy).
# in vivo = conditions: BALB/c, mouse, sc, 500 mg/kg; for AUC(0-t): AUClast; for Kp: Tissue/Plasma Ratio
# Method: The vehicle used for dissolution of test compounds was 0.9% Normal Saline. […] The formulations were prepared on the day of the study. The test compounds were administered at 100 mg/kg for the IV study and 500 mg/kg for the SC study. For the tissue distribution study, again 500 mg/kg was administered by the SC route.
# Post dose, blood, or the relevant tissue in the case of the distribution study was collected at time points of 2 min, 5 min, 15 min, 30 min, 1 h, 2 h, 4 h, 24 h, 36 h and 48 h. From each mouse terminal blood samples were collected by cardiac puncture under isoflurane anaesthesia. The blood was collected in 2 ml Eppendorf tubes containing 0.020 ml of 10% K2EDTA, mixed gently and placed in ice before centrifugation. Plasma was harvested and stored at −80 °C. […] The PK analysis was performed using Non-compartmental methods in Phoenix WinNonlin 6.4 [Pharsight, Certara]. The mean concentration-time data were used for computing the PK parameters. The AUC was computed using the linear up-log down method. The following NCA parameters were estimated for the IV PK: Systemic Clearance [CL], Vss [Volume of distribution at steady state], first order elimination rate constant [ke], terminal half-life [t1/2], AUC0-t, AUC0-∞. For the SC PK study: Cmax, tmax, ke, t1/2, AUC0-t, AUC0-∞ and the absolute SC bioavailability [F] was estimated using the equation: F(%)=(AUCsc/AUCiv)∗(Doseiv/Dosesc)∗100
# Npc1^nmf164 mice [6] = experiment: Early intervention efficacy study (treatment from 2 weeks of age); assay type: in vivo; conditions: for Mean bodyweight: Npc1^nmf164 mice, 800 mg/kg SC weekly
# Method: Control group mice received plain PBS (sham, group).
# The body weight was recorded weekly and a score ranging from 0 to 5 was assigned to each mouse (Table 3) as previously performed. The motor co-ordination phenotype was assessed by the balance beam test every two weeks as previously described. Briefly, the mouse was placed perpendicularly at the center of a horizontal round beam (covered with paper tape, outer diameter 2 cm, length 1 m, divided into 10 sections and placed 50 cm above a padded surface) and the number of beam sections crossed in a 180 s time interval was recorded. Although the test relies on muscle strength and limb tone, it is well validated for the assessment of fine motor coordination and balance. […] The end-point of data collection was established as mouse weight approaching 13 g[40].
# [7] = 800 mg/kg SC weekly from 2 weeks of age
compound,measurement,setting,value
"CC(O)COC[C@H]1O[C@@H]2O[C@H]3[C@H](O)[C@@H](O)[C@@H](O[C@H]4[C@H](O)[C@@H](O)[C@@H](O[C@H]5[C@H](O)[C@@H](O)[C@@H](O[C@H]6[C@H](O)[C@@H](O)[C@@H](O[C@H]7[C@H](O)[C@@H](O)[C@@H](O[C@H]8[C@H](O)[C@@H](O)[C@@H](O[C@H]1[C@H](O)[C@H]2O)O[C@@H]8COCC(C)O)O[C@@H]7COCC(C)O)O[C@@H]6COCC(C)O)O[C@@H]5COCC(C)O)O[C@@H]4COCC(C)O)O[C@@H]3COCC(C)O (stereo partly drawn) [HPβCD, 2-hydroxypropyl-β-cyclodextrin]",fraction that reaches the brain upon systemic administration,"[1]; ref 25, 53",0.2–1.5%
same,fraction that reaches the brain upon systemic administration,[1]; ref 25,less than 0.2%
same,concentration at 24 h,"[2]; in vivo, iv, 100 mg/kg",4.95 µg/mL
same,tlast,"[2]; in vivo, iv, 100 mg/kg",24 h
same,bioavailability,"[2]; plasma, 500 mg/kg, printed under the Intravenous columns, read-out: Absolute Bioavailability",42%
same,half-life,"[2]; plasma, iv, 100 mg/kg, intravenous 100 mg/kg",~14 h
same,clearance,"[2]; plasma, single IV dose 100 mg/kg",0.85 mL/min/kg
same,Vd,"[2]; plasma, single IV dose 100 mg/kg, read-out: Vss",0.18 L/kg
same,AUC(0-inf),"[2]; intravenous 100 mg/kg, plasma",1960 µg·h/mL
same,AUC(0-t),"[2]; intravenous 100 mg/kg, plasma",1860 µg·h/mL
same,Tmax,"[2]; intravenous 100 mg/kg, plasma",4.98 min
same,mean lifespan,Npc1^nmf164 mice [3],170 to 180 days
same,bioavailability,"[4]; subcutaneous 500 mg/kg vs intravenous 100 mg/kg, read-out: Absolute Bioavailability",42%
same,AUC(0-inf),"[4]; sc, subcutaneous 500 mg/kg",4140 µg·h/mL
same,AUC(0-t),"[4]; sc, subcutaneous 500 mg/kg",4020 µg·h/mL
same,Cmax,"[4]; sc, subcutaneous 500 mg/kg",4610 µg/mL
same,Tmax,"[4]; sc, subcutaneous 500 mg/kg",4.98 min
same,half-life,"[4]; sc, subcutaneous 500 mg/kg",16.7 h
same,effect on lifespan,"Npc1^nih/nih mice; single injection at day 49, Npc1^nih/nih mice",did not significantly improve the lifespan
same,dosage required for improvement of survival,"Npc1^nih/nih mice; weekly injections started at day 42, Npc1^nih/nih mice",at least 1000 mg/kg
same,Calbindin staining of Purkinje cells,[5],markedly reduced Calbindin staining
same,AUC(0-t),in vivo; kidney,2950 µg·h/mL
same,AUC(0-t),in vivo; liver,127 µg·h/mL
same,AUC(0-t),in vivo; spleen,828 µg·h/mL
same,Kp,in vivo; kidney,0.63
same,Kp,in vivo; liver,0.03
same,Kp,in vivo; spleen,0.18
same,body weight loss progression,Npc1^nmf164 mice [6]; [7],less severe and slower progressing weight loss
same,improvement of performance in the balance beam test,Npc1^nmf164 mice [6]; [7],only temporarily observed up to 9-weeks of age
same,mean lifespan,Npc1^nmf164 mice [6]; [7],150 ± 2.55 days
same,improvement in mean survival,"Npc1^nmf164 mice [6]; 800 mg/kg SC weekly from 2 weeks of age, vs sham-treated",35%
same,Mean bodyweight,Npc1^nmf164 mice [6]; post-natal week 2,7.43 ± 0.30 g
same,Mean bodyweight,Npc1^nmf164 mice [6]; post-natal week 3,10.37 ± 0.33 g
same,Mean bodyweight,Npc1^nmf164 mice [6]; post-natal week 4,13.31 ± 0.53 g
same,Mean bodyweight,Npc1^nmf164 mice [6]; post-natal week 5,17.24 ± 0.65 g
same,Mean bodyweight,Npc1^nmf164 mice [6]; post-natal week 6,18.58 ± 0.75 g
same,Mean bodyweight,Npc1^nmf164 mice [6]; post-natal week 7,20.25 ± 0.84 g
same,Mean bodyweight,Npc1^nmf164 mice [6]; post-natal week 8,20.85 ± 0.94 g
same,Mean bodyweight,Npc1^nmf164 mice [6]; post-natal week 9,20.55 ± 1.03 g
same,Mean bodyweight,Npc1^nmf164 mice [6]; post-natal week 10,19.92 ± 0.81 g
